Results: patent US20240262783A1, “PHARMACEUTICAL SALT OF FINGOLIMOD, PREPARATION METHOD, PHARMACEUTICAL COMPOSITION AND USE THEREOF” (SHANGHAI BOCIMED PHARMACEUTICAL CO., LTD., priority 2021, published 2024)
Converted amounts (≈) assume the structure as drawn. Where a name gives a salt, the structure may show the parent alone. Read-outs that look alike come from different tables or passages of the source.

Tests used:
[1] = Comparison of solubility (shaken at 37° C. for 24 h, HPLC); type: physicochemical; conditions: for Solubility: 24 h; for solubility at 24 h: 37 °C, thermodynamic from solid
Description: The crystalline form 1 of Fingolimod 1-hydroxy-2-naphthoate prepared in Example 14, the crystalline form B of Fingolimod embonate prepared in Example 2, Fingolimod hydrochloride and the Fingolimod free base prepared in Example 12 were added to corresponding media described below. The mixtures were shaken at 37° C. for 24 h and filtered through 0.45 μm aqueous-phase filter membranes. The filtrates were collected for determination of solubility by high-performance liquid chromatography. The corresponding media were acetate buffer solutions at pH 3 and pH 5 and phosphate buffer solutions at pH 7 and pH 9, and the water was ultrapure water.

[2] = Comparison of solid state stability (related substances by HPLC); type: physicochemical; conditions: for Solid state stability, total related substances (in words): stood in high temperature, high humidity, accelerated, illumination and long-term conditions for 10 d
Description: Method for Detecting Related Substances by HPLC [table] The crystalline form 1 of Fingolimod 1-hydroxy-2-naphthoate prepared in Example 14, the crystalline form A of Fingolimod embonate prepared in Example 3, and Fingolimod hydrochloride were stood in a high temperature (60° C.)condition, a high humidity (25° C./90% RH) condition, an accelerated (40° C./75% RH) condition, an illumination (1.2× 10^6 Lux·hr) condition, and a long-term (25° C./60% RH) condition, and samples were taken on day 0, day 5, and day 10 for related substance detection by HPLC.

[3] = male, SD, rat, in vivo, po, 0.1 mg/kg
Description: (§1) Six male SD rats were divided into two groups. […] In the whole study, the animals in the intramuscular injection group were given ad libitum access to food and water, and those in the oral group were fasted overnight before administration and given access to food at 4 h post-dose.
(§2) Collection of plasma sample: about 150 μL of blood was collected from the jugular vein (whole blood was centrifuged within 30 min to isolate plasma) and placed in a tube containing anticoagulant EDTA-K2, and after treatment, plasma was stored in a freezer at −70° C. before use.
(§3) Pretreatment of plasma sample: to 30 μL of plasma sample, 200 μL of internal standard solution (40 ng/mL Glipizide acetonitrile solution) was added; the mixture was vortexed for 1 min and centrifuged at 5800 rpm at 4° C. for 10 min; 100 μL of supernatant was transferred to a new plate 5 μL of the solution was taken for LC-MS/MS.

in vivo = conditions: male, SD, rat, po, 0.1 mg/kg
Description: as §1, §2, §3

[4] = Pharmacokinetic study in male SD rats (plasma Fingolimod by LC-MS/MS)
Description: as §1, §2, §3

[5] = Accelerated (40° C./75% RH), Day 5
[6] = Accelerated (40° C./75% RH), Day 10
[7] = Day 0 (baseline, all conditions)
[8] = High humidity (25° C./90% RH), Day 5
[9] = High humidity (25° C./90% RH), Day 10
[10] = High temperature (60° C.), Day 5
[11] = High temperature (60° C.), Day 10
[12] = Illumination (1.2× 10^6 Lux·hr), Day 5
[13] = Illumination (1.2× 10^6 Lux·hr), Day 10
[14] = Long-term (25° C./60% RH), Day 5
[15] = Long-term (25° C./60% RH), Day 10
[16] = injection group, intramuscular 3 mg/kg

Compound | Solubility ([1]; Water (ultrapure), 37° C.) | Solubility ([1]; pH 3 acetate buffer, 37° C.) | Solubility ([1]; pH 5 acetate buffer, 37° C.) | Changes in total related substances relative to day 0 [2, 5] | Changes in total related substances relative to day 0 [2, 6] | Changes in total related substances relative to day 0 [2, 7] | Changes in total related substances relative to day 0 [2, 8] | Changes in total related substances relative to day 0 [2, 9] | Changes in total related substances relative to day 0 [2, 10] | Changes in total related substances relative to day 0 [2, 11] | Changes in total related substances relative to day 0 [2, 12] | Changes in total related substances relative to day 0 [2, 13] | Changes in total related substances relative to day 0 [2, 14] | Changes in total related substances relative to day 0 [2, 15] | Solid state stability, total related substances (in words) [2] | Solubility ([1]; pH 7 phosphate buffer, 37° C.) | Solubility ([1]; pH 9 phosphate buffer, 37° C.) | also measured
CCCCCCCCc1ccc(CCC(N)(CO)CO)cc1 [Fingolimod free base, reference compound] | about 23 μg/mL | 5561.36 µg/mL (≈ 18.1 mM) | 473.53 µg/mL (≈ 1.54 mM) |  |  |  |  |  |  |  |  |  |  |  |  |  |  | 
CCCCCCCCc1ccc(CCC(N)(CO)CO)cc1 [Fingolimod hydrochloride, reference compound] |  |  |  | −0.07% | 0.01% | 0% | −0.07% | −0.07% | 0.03% | 0.02% | −0.04% | −0.03% | 0.04% | −0.12% |  |  |  | Behaviour of the salt in the media (in words) [1]: dissociated into the Fingolimod free base; solubility at 24 h ([1]; pH 3, aqueous buffer): > 33500 µg/mL; solubility at 24 h ([1]; pH 5, aqueous buffer): > 15600 µg/mL; solubility at 24 h ([1]; pH 7, aqueous buffer): < 0.15 µg/mL; solubility at 24 h ([1]; pH 9, aqueous buffer): < 0.15 µg/mL; solubility at 24 h ([1]; water): ~14000 µg/mL; Solubility [1]: >13900 µg/mL
CCCCCCCCc1ccc(CCC(N)(CO)CO)cc1 [Fingolimod] |  |  |  |  |  |  |  |  |  |  |  |  |  |  |  |  |  | Time post-dose at which plasma concentration reached the peak value [3]: 12 h; MRT (in vivo): 12 h
Fingolimod 1-hydroxy-2-naphthoate | 5.46 µg/mL | 20.07 µg/mL | 9.17 µg/mL | −0.09% | −0.07% | 0% | −0.04% | −0.07% | −0.05% | −0.16% | −0.05% | 0.02% | −0.17% | −0.15% | remained substantially unchanged | 0.54 µg/mL | 0.58 µg/mL | Solubility in water relative to the solubility of Fingolimod free base ([1]; water): one fourth to one fifth; Solubility in water relative to the solubility of Fingolimod hydrochloride ([1]; water): one thousandth to one twenty-six hundredth; Cmax relative to dose (in words) ([4]; injection group 3 mg/kg versus oral group 0.1 mg/kg): did not increase in proportion to the dose; MRT [4, 16]: 288 h; Time for plasma concentration to reach a relatively steady state [4, 16]: ≤ 1 days; Time plasma concentration was maintained above 0.3 ng/ml [4, 16]: at least 15 days; Time post-dose at which plasma concentration reached the peak value ([4]; injection group, intramuscular 3 mg/kg (Example 18 sample)): 3 h
Fingolimod embonate [listing 1 of 2 here] |  |  |  | 0% | −0.11% | 0% | 0.12% | 0.11% | −0.04% | −0.21% | 0.2% | 0.3% | 0.08% | −0.01% | relatively stable in other conditions than the illumination condition where the impurities were slightly increased |  |  | 
Fingolimod embonate [listing 2 of 2 here] | 0.2 µg/mL | 36.18 µg/mL | 1.75 µg/mL |  |  |  |  |  |  |  |  |  |  |  |  | 21.26 µg/mL | 5.8 µg/mL | 
